Experimental findings from paper PMC6383986, “Fragment-Based Covalent Ligand Screening Enables Rapid Discovery of Inhibitors for the RBR E3 Ubiquitin Ligase HOIP” (Journal of the American Chemical Society, 2019) are described below.

For the assay, the target named is T1, wild type HOIP RBR domain (Homo sapiens, UniProt Q96EP0).
T1 construct: made in house; host or cells: E. coli BL21-GOLD(DE3)
T1 sequence (Q96EP0 697-1072): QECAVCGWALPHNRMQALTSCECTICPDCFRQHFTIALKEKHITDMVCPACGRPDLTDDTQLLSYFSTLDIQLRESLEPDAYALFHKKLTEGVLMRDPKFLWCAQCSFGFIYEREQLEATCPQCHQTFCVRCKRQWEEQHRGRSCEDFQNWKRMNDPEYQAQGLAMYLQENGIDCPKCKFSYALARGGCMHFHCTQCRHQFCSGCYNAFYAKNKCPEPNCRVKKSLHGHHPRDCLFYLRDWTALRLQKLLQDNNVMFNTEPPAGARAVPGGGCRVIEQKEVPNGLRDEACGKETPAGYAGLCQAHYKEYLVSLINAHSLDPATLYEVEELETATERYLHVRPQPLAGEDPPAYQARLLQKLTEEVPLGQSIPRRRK
Put plainly: Protein LC-MS kinetics of covalent labeling. It is filed as binding. As to the method:
negative control and compound solutions data points were acquired after 0.5, 4, and 24 h […]
Protocol as described above, using the HOIP RBR C885S mutant (155 µM stock solution in 50 mM HEPES, 150 mM NaCl, 1 mM DTT, pH 7.5) and 50 mM HEPES, 150 mM NaCl, pH 7.5 buffer.
The stock solution at 4 µM (25 µL per sample, final concentration 2 µM, 87 µg/mL), was mixed with buffer (24.5 µL) and compound (5) (0.5 µL of 2, and 20 mM stock solutions in DMSO, giving a final concentration of 20 and 200 µM respectively, and 1% DMSO). Data points were acquired after 0.5 and 4 h incubation.
The HOIP RBR domain wild type was diluted with 50 mM HEPES, 150 mM NaCl, pH 7.5 buffer to afford a new stock solution at 2.02 µM, which was aliquoted into 10 × 297 µL. Compound (5) stock solutions (3.0 µL each) at 0, 0.2, 0.8, 2, 4, 10, 20 and 40 mM in DMSO were added to give final compound concentrations at 0, 2, 8, 20, 40, 100, 200 and 400 µM respectively. Immediately after addition the samples were vortexed briefly and the time zero aliquots (25 µL) withdrawn, flash frozen in liquid nitrogen and stored at -80 °C. The protein solutions were incubated at 800 rpm (Eppendorf Thermomixer), 23 °C. Additional aliquots (all 25 µL) were similarly withdrawn after […]
thawed individually and analyzed by protein mass spectrometry as described above. The total ion counts (TICs) detected for unlabelled HOIP and labelled HOIP-(5) conjugate within a peak elution range of 10 seconds were used to calculate the ratio of labelled HOIP RBR over total HOIP RBR content for each sample. The averaged data from 3 independent experiments were analyzed according to a two-step model of reversible ligand binding followed by irreversible covalent modification (Supplementary Figure S2A),11 fitted to a single exponential equation (equation 1, Supplementary Figure S2B) using GraFit (v.7). The observed rate constants (kobs) relate to Kd and kinact as depicted in equation 2 (Supplementary Figure S2C), although for compounds with weak affinities (such as fragments) the Kd is typically larger than the highest tested compound concentration (limited by aqueous solubility), and the kobs display a linear relationship to compound concentration, and a slope that equals to kinact/Kd (Figure 3D, Supplementary Figure […]
Protein labelling: The HOIP RBR domain (16 µM) in buffer (50 mM HEPES, 150 mM NaCl, pH 7.5) was incubated with compound (5) (267 µM; 16-fold excess) at ambient temperature at 600 rpm (Heidolph Instruments) for 21 h. The protein was purified on a buffer exchanged spin chromatography column (Micro Bio-spin 6, Bio-Rad Laboratories) according to the vendor’s instructions to afford a stock solution of the HOIP RBR-(5) complex at a concentration of 7.6 µM (0.33 mg/mL) as determined by Nanodrop UV spectrophotometer. […]

For orientation: kinact means the rate constant of inactivation at saturating inhibitor. In general, Kd refers to the free concentration of one partner at which half of the binding sites on the other are occupied at equilibrium, for simple one-to-one binding. Read a low Kd as tighter binding. With `COC(=O)/C=C/CNC(=O)c1cc2c([nH]c1=O)CCC2` [Compound 5], for the setting “gradient of kobs vs concentration, 0-400 μM, 2 μM protein”, the kinact/Kd was determined as 0.97 ± 0.01 M^–1 s^–1. In addition, where the note is “inferred from lower limit of Kd”, the “ligand efficiency, LE” value is on record as < 0.24. Moreover, the kinact (lower limit, following from Kd limit) was > 0.0004 s⁻¹. Further, where the note is “lower limit, kobs linear across range tested”, the Kd was > 400 µM.
